# Experimental data reported in patent publication US12215354B2, “Differentiation of human embryonic stem cells into single hormonal insulin positive cells” (Janssen Biotech, Inc., priority 2011, dated 2025).
# How the values were obtained:
# [1] = test system: human embryonic stem cell line H1; assay: Real-time PCR gene expression, dose of BMP inhibitor at S4 (Example 5); format: cell-based; settings: 50 nM or 100 nM at days 1, 2, 3, or 4 of S4
# Description: Cells of the human embryonic stem cell line H1 at various passages (passage 40 to passage 52) were seeded as single cells at a density of 100,000 cells/cm^2 on MATRIGEL™ (1:30 dilution) coated dishes in mTesr™1 media and 10 μM of Y27632. Forty eight hours post seeding, cultures were differentiated into pancreatic endocrine lineage as follows: • a. Stage 1 (Definitive Endoderm (DE)−4 days): Prior to start of DE, the cultures were washed and incubated with incomplete PBS (no Mg or Ca) for 30 seconds followed by addition of the stage 1 media. Human embryonic stem cells cultured as single cells on MATRIGEL™-coated dishes were treated with MCDB-131 medium supplemented with 0.1% fatty acid-free BSA, 0.0012 g/ml sodium bicarbonate, 1× GLUTAMAX™, 2.5 mM D-Glucose, 100 ng/ml GDF8, and 1 μM MCX compound (GSK3B inhibitor) for one day. Cells were then treated with MCDB-131 medium supplemented with 0.1% fatty acid-free BSA, 0.0012 g/ml sodium bicarbonate, 1× GLUTAMAX™, 2.5 mM glucose, and 100 ng/ml GDF8 for days 2-4. • b. Stage 2 (Primitive gut tube−3 days): Stage 1 cells were treated with MCDB-131 medium supplemented with 0.1% fatty acid-free BSA, 0.0012 g/ml sodium bicarbonate, 1× GLUTAMAX™, 2.5 mM D-Glucose, and 50 ng/ml FGF7 for three days. • c. […]
# [2] = test system: human embryonic stem cell line H1; assay: Real-time PCR gene expression, timing of BMP inhibition at stage 3 (Example 3); format: cell-based
# Description: Cells of the human embryonic stem cell line H1 at various passages (passage 40 to passage 52) were seeded as single cells at a density of 100,000 cells/cm^2 on MATRIGEL™ (1:30 dilution) coated dishes in mTesr™1 media supplemented with 10 μM of Y27632. Forty eight hours post seeding, cultures were differentiated into cells of the pancreatic endocrine lineage as follows: • a. Stage 1 (Definitive Endoderm (DE)−4 days): Prior to start of DE, the cells were washed and incubated with incomplete PBS (no Mg or Ca) for 30 seconds followed by incubation in S1 media. Human embryonic stem cells cultured as single cells on MATRIGEL™-coated dishes were treated for one day with MCDB-131 medium supplemented with 0.1% fatty acid-free BSA, 0.0012 g/ml sodium bicarbonate, 1× GLUTAMAX™, 2.5 mM D-Glucose, 100 ng/ml GDF8, 1.5 μM MCX compound (GSK3B inhibitor). Cells were then treated for […] (days 2-4) with MCDB-131 medium supplemented with 0.1% fatty acid-free BSA, 0.0012 g/ml sodium bicarbonate, 1× GLUTAMAX™, 2.5 mM glucose, and 100 ng/ml GDF8. • b. Stage 2 (Primitive gut tube−3 days): Stage 1 cells were treated for three days with MCDB-131 medium supplemented with 0.1% fatty acid-free BSA, 0.0012 g/ml sodium bicarbonate, 1× GLUTAMAX™, 2.5 mM D-Glucose, and 50 ng/ml FGF7. • c. Stage 3 (Foregut−3 days): Stage 2 cells were treated with MCDB-131 medium supplemented with a 1:200 dilution of ITS-X, 2.5 mM Glucose, 1× GLUTAMAX™, 0.0015 g/ml sodium bicarbonate, 2% fatty acid-free BSA, 0.25 μM SANT-1, 20 ng/ml of Activin-A, 2 μM RA, 50 ng/ml FGF7, 100 nM LDN-193189 (on day 1 only or for the duration of stage 3), and 200 nM TPB. In some cultures, LDN-193189 was removed from stage 3. • d. Stage 4 (Pancreatic foregut precursor-3 days): Stage 3 cells were treated with MCDB-131 medium supplemented with a 1:200 dilution of ITS-X, 2.5 mM Glucose, 1× GLUTAMAX™, 0.0015 g/ml sodium bicarbonate, 2% fatty acid-free BSA, 0.25 μM SANT-1, 100 nM TPB, 200 nM LDN-193189, 2 μM ALk5 inhibitor, and 100 nM CYP26A inhibitor for three days. • e. […]
# [3] = at stage 4, 100 nM LDN-193189 on first day of stage 3, removed at days 2-3
smiles,measurement,setting,value
c1ccc2c(-c3cnn4cc(-c5ccc(N6CCNCC6)cc5)cnc34)ccnc2c1 [LDN-193189],expression of endocrine markers,[1],prolong
same,expression of SOX2,[1]; at S4-S5,low expression
same,expression of SOX2,"[2]; at S3-S4, LDN-193189 retained for the duration of stage 3",very high expression
same,CDX2 and SOX2 expression,[2]; [3],decreasing
same,expression of NGN3 and NeuroD,[2]; [3],significantly boosted
